Structures are written as SMILES. The source made the active and inactive calls. No cut-off for these calls is given here.

The target of one assay is T1, Matrilysin (Homo sapiens, UniProt P09237).
T1 sequence (P09237 whole entry): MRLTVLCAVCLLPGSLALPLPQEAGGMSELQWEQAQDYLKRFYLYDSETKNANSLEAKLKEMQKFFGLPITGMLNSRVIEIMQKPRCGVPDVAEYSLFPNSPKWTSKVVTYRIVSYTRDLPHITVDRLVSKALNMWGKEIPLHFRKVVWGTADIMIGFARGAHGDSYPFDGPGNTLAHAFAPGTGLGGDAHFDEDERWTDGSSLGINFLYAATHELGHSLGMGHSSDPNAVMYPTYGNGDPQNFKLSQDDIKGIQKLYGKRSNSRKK
The assay is described as follows: (§1) Inhibition of human recombinant MMP7.

In assay [1] the target is T2, Matrix metalloproteinase-9 (Homo sapiens, UniProt P14780). In words: Inhibition of human recombinant MMP9.
T2 sequence (P14780 whole entry): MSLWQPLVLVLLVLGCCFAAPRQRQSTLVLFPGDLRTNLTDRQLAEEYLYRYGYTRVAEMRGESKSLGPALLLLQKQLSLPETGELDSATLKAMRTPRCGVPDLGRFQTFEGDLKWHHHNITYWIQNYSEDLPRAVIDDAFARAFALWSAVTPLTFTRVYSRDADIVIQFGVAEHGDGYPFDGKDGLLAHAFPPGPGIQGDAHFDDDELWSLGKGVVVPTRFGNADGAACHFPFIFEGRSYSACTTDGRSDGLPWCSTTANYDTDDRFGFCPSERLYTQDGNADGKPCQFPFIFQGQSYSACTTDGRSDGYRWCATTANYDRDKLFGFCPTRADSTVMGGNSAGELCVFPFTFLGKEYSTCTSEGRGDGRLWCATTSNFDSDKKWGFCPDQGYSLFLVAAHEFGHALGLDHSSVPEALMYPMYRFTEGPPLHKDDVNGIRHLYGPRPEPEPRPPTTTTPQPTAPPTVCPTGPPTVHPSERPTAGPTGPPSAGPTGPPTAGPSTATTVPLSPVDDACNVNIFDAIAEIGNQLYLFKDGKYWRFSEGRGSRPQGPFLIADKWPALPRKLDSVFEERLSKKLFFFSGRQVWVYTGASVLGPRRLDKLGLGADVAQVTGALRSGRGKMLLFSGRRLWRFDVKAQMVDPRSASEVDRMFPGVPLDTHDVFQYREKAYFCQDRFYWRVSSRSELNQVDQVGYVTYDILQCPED
In assay [2] the target is T3, Stromelysin-2 (Homo sapiens, UniProt P09238). In words: Inhibition of human recombinant MMP10.
Assay [3] has as its target T3, Stromelysin-2. The assay is described as follows: Inhibition of human recombinant MMP10 at 10 uM.
Target sequence in this assay (P09238 99-476 limits assumed): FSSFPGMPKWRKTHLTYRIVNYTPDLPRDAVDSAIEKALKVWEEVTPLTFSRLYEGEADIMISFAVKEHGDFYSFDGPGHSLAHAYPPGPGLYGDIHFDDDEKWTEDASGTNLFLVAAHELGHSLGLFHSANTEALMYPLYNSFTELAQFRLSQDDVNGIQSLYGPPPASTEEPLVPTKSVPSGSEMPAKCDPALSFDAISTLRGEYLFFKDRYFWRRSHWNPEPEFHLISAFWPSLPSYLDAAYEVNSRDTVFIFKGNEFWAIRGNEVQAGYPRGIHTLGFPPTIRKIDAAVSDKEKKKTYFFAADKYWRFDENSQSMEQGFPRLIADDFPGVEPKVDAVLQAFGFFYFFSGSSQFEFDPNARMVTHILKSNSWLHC
The target in assay [4] is T4, Matrilysin (Homo sapiens) (UniProt P09237).
T4 sequence (whole entry): T1 sequence (P09237 whole entry)
In words: Inhibition of human recombinant MMP7 at 10 uM.

For assay [5], the target named is T2, Matrix metalloproteinase-9. In words: Inhibition of human recombinant MMP9 at 10 uM.
Assay [6] addresses T4, Matrilysin (Homo sapiens). Described as §1.

As to `O=C(NO)C(CNS(=O)(=O)c1c(F)c(F)c(F)c(F)c1F)NS(=O)(=O)c1c(F)c(F)c(F)c(F)c1F` (configuration not stated), the Ki (as a rule, the equilibrium dissociation constant of an inhibitor or competing ligand from its target) at Matrilysin turned out to be 8.6 µM; in assay [1], 212 µM. The outcome on Stromelysin-2 [2] was inactive.

Take `O=C(NO)[C@H](CCCNS(=O)(=O)c1ccccc1)NS(=O)(=O)c1ccccc1`: the Ki on Matrilysin came to 3 µM. Also, the outcome (in assay [1]; at Stromelysin-2 [2]) was inactive.

On to `O=C(NO)[C@H](CCCNS(=O)(=O)c1ccc(F)cc1)NS(=O)(=O)c1ccc(F)cc1`, for which, in assay [1], the outcome was inactive. The inhibition (usually the share of the control response that was lost under treatment) stood at 20% on Stromelysin-2 [3] and 17% in assay [4].

With `COc1ccc(S(=O)(=O)NCC(NS(=O)(=O)c2ccc(OC)cc2)C(=O)NO)cc1` (configuration not stated), the figures for the Ki (at Matrilysin; in assay [1]; at Stromelysin-2 [2]) were 0.605 µM, 0.039 µM and 0.335 µM, respectively.

Consider `CN(C)c1cccc2c(S(=O)(=O)NCC(NS(=O)(=O)c3cccc4c(N(C)C)cccc34)C(=O)NO)cccc12` (configuration not stated), for which the Ki at Matrilysin stood at 4.8 µM; in assay [1] it was 150 µM.

Regarding `O=C(NO)C(CNS(=O)(=O)c1ccccc1C(F)(F)F)NS(=O)(=O)c1ccccc1C(F)(F)F` (configuration not stated), the Ki on Matrilysin worked out at 6 µM. In addition, the result (in assay [1]; at Stromelysin-2 [2]) was inactive.

For the compound `COc1ccc(S(=O)(=O)NCC(NS(=O)(=O)c2ccc(OC)cc2OC)C(=O)NO)c(OC)c1` (configuration not stated), the inhibitory constant (Ki) on Matrilysin stood at 0.289 µM; in assay [1] it was 124 µM; on Stromelysin-2 [2], 372 µM.

For the compound `O=C(NO)C(CNS(=O)(=O)c1ccc(F)cc1)NS(=O)(=O)c1ccc(F)cc1` (configuration not stated), the inhibition constant (Ki) came to 0.625 µM on Matrilysin, 2.75 µM in assay [1] and 4.57 µM at Stromelysin-2 [2].

Regarding `O=C(NO)[C@H](CCCNS(=O)(=O)c1ccc(Cl)cc1)NS(=O)(=O)c1ccc(Cl)cc1`, the outcome in assay [1] was inactive. For the same compound, the figures for the inhibition (at Stromelysin-2 [3]; in assay [4]) were 34.5% and 31%, respectively.

Take `O=C(NO)[C@H](CCCCNS(=O)(=O)c1ccccc1)NS(=O)(=O)c1ccccc1`: the inhibition at Stromelysin-2 [3] was 34.5%; in assay [4], 44%; in assay [5], 7.5%.

Regarding `O=C(NO)[C@H](CCCCNS(=O)(=O)c1ccc(I)cc1)NS(=O)(=O)c1ccc(I)cc1`, in assay [1], the outcome was inactive. Also, the inhibition turned out to be 30.9% on Stromelysin-2 [3] and 46% in assay [4].

Take `O=C(NO)C(CNS(=O)(=O)c1ccccc1)NS(=O)(=O)c1ccccc1` (configuration not stated): the Ki on Matrilysin is 2.8 µM; in assay [1], 0.227 µM; at Stromelysin-2 [2], 0.356 µM.

Regarding `O=C(NO)C(CNS(=O)(=O)c1ccc(I)cc1)NS(=O)(=O)c1ccc(I)cc1` (configuration not stated), the Ki is 1.8 µM on Matrilysin, 0.0026 µM in assay [1] and 1.6 µM at Stromelysin-2 [2].

As to `O=C(NO)[C@H](CCCCNS(=O)(=O)c1ccc(F)cc1)NS(=O)(=O)c1ccc(F)cc1`, the Ki at Matrilysin stood at 3.1 µM. Moreover, the outcome in assay [1] was inactive. Further, the inhibition at Stromelysin-2 [3] came to 27.4%.

As for `O=C(NO)C(CNS(=O)(=O)c1ccc([N+](=O)[O-])cc1)NS(=O)(=O)c1ccc([N+](=O)[O-])cc1` (configuration not stated), the inhibition constant (Ki) on Matrilysin was determined as 6.6 µM; in assay [1] it was 1.7 µM; at Stromelysin-2 [2], 22 µM.

Take `O=C(NO)C(CNS(=O)(=O)c1ccc(Cl)cc1)NS(=O)(=O)c1ccc(Cl)cc1` (configuration not stated): the Ki at Matrilysin worked out at 0.237 µM; in assay [1], 0.23 µM.

For `O=C(NO)[C@H](CCCNS(=O)(=O)c1ccc(I)cc1)NS(=O)(=O)c1ccc(I)cc1`, the Ki was 5 µM on Matrilysin and 221 µM in assay [1]. Besides, the outcome at Stromelysin-2 [2] was inactive.

As to `COc1ccc(S(=O)(=O)NCCC[C@H](NS(=O)(=O)c2ccc(OC)cc2)C(=O)NO)cc1`, in assay [6], the result was inactive. In assay [1], the Ki is 4.2 µM. In addition, the Activity on Stromelysin-2 [2] amounted to 16 µM.

`O=C(NO)[C@H](CCCNS(=O)(=O)c1ccc(Br)cc1)NS(=O)(=O)c1ccc(Br)cc1`: the inhibition at Stromelysin-2 [3] came out at 16.4%; in assay [4] it was 32%; in assay [5] it was 9.3%.

As for `O=C(NO)C(CNS(=O)(=O)c1ccc(Br)cc1)NS(=O)(=O)c1ccc(Br)cc1` (configuration not stated), the results for the inhibition constant Ki (at Matrilysin; in assay [1]) were 5.5 µM and 0.15 µM, respectively.

Regarding `O=C(NO)[C@H](CCCCNS(=O)(=O)c1ccc(Br)cc1)NS(=O)(=O)c1ccc(Br)cc1`, the Ki at Matrilysin turned out to be 2.2 µM. Further, the result in assay [1] was inactive. Further, the inhibition at Stromelysin-2 [3] stood at 34.5%.

Take `O=C(NO)[C@H](CCCNS(=O)(=O)c1ccc(C(F)(F)F)cc1)NS(=O)(=O)c1ccc(C(F)(F)F)cc1`: the Ki at Matrilysin worked out at 7 µM; in assay [1], 329 µM; on Stromelysin-2 [2], 337 µM.

On to `O=C(NO)C(CNS(=O)(=O)c1ccc(C(F)(F)F)cc1)NS(=O)(=O)c1ccc(C(F)(F)F)cc1` (configuration not stated), for which the Ki was 10 µM on Matrilysin, 7.9 µM in assay [1] and 23 µM on Stromelysin-2 [2].

On to `O=C(NO)[C@H](CCCCNS(=O)(=O)c1ccc(C(F)(F)F)cc1)NS(=O)(=O)c1ccc(C(F)(F)F)cc1`, for which the result in assay [1] was inactive. For the same compound, the inhibition at Stromelysin-2 [3] was 1.8%; in assay [4] it was 24%.

As to `O=C(NO)C(CNS(=O)(=O)c1cccc(C(F)(F)F)c1)NS(=O)(=O)c1cccc(C(F)(F)F)c1` (configuration not stated), the inhibition constant Ki on Matrilysin stood at 0.602 µM. Moreover, the outcome (in assay [1]; on Stromelysin-2 [2]) was inactive.

Source of the values: ChEMBL document CHEMBL1150313, “Novel bis-(arylsulfonamide) hydroxamate-based selective MMP inhibitors” (Bioorg Med Chem Lett, 2008).
